How the values were obtained:
[1] = system: NCI-H929 cells; assay: Cell viability assay (NCI-H929 cells), CCK-8; type: cell-based; conditions: Homo sapiens, NCI-H929, 24 h, WST, 5% FBS
Description: Cell Viability Assay (NCI-H929 Cells)
NCI-H929 cells were obtained from American Type Culture Collection (ATCC). Cells were maintained in the recommended culture medium (RPMI 1640) with 10% FBS and 0.05 mM BME at 37° C. and an atmosphere of 5% CO2.
The effect of Compounds on cell viability was determined using Cell Counting Kit-8 (CCK-8) assay according to the manufacturer's instructions. 95 μL of NCI-H929 cell suspension (20000 cells/well) in culture medium were seeded into 96-well plates and cultured 4 hrs. Each tested compound was serially diluted in DMSO, then 5 μL of the compound or DMSO was diluted in 95 μL medium once more. At last, 5 μL of the compound dilution was added to the corresponding well of the cell plate. After the addition of the tested compound, the cells were incubated at 37° C. in an atmosphere of 5% CO2 for 24 hrs. At the end, 10 μL of CCK-8 solution was added to each well of the plate and incubated for 1-4 hours. The plates were read at 450 nm on the microplate reader (BioTek Synergy 1MF). The readings were normalized to the vehicle cells, and the IC50 was calculated by nonlinear regression analysis using GraphPad Prism 6 software.

[2] = biological target: T1, Mcl-1 protein (residues 171-323) (Homo sapiens, UniProt Q07820); assay: Inhibition of Mcl-1 by fluorescence polarization (FP) competitive binding assay; conditions: FAM-Bid tracer 2 nM, Mcl-1 20 nM, 30 min
T1 construct: Tag-free Mcl-1 protein (residues 171-323) was used in the FP assay
T1 sequence (Q07820 171-323): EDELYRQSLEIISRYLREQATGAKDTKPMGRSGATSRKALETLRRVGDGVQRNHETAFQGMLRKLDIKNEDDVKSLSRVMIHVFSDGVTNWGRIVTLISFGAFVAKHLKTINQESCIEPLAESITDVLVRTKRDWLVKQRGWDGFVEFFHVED
Description: Inhibition of Mcl-1 by Fluorescence Polarization (FP) Assay.
The method used a fluorescein labelled peptide (FAM-Bid) which binds to the Mcl-1 protein leading to an increased anisotropy measured in milli-polarization (mP) values using a plate reader.
A 10-points serial dilution of each compound was prepared in DMSO and 5 μL solution was transferred into flat bottomed, 96-well back plate (final DMSO concentration 5%). 120 μL of Buffer (PBS, 0.01% BGG (Sigma Cat. #SRE0011), 0.01% Triton X-100), containing the Fluorescein labelled peptide (Final concentration 2 nM) and Mcl-1 protein (final concentration 20 nM) was then added. […] 10-points dose response curves were plotted with GraphPad software using Sigmoidal Dose-Response Model and the IC50 values were determined by nonlinear regression fitting of the competition curves.

[3] = system: OPM-2 cells; assay: Cell viability assay (OPM-2 cells), CCK-8; type: cell-based; conditions: Homo sapiens, OPM-2, 24 h, WST, 5% FBS, read-out: OPM2 (WST, 5% FBS)
Description: Cell Viability Assay (OPM-2 Cells)
OPM-2 cells were obtained from Deutsche Sammlung von Mikroorganismen und Zellkulturen GmbH (DSMZ). […]
The effect of representative Compounds of the Disclosure on cell viability was determined using Cell Counting Kit-8 (CCK-8) assay (Shanghai Life iLab Bio Technology) according to the manufacturer's instructions. Each tested compound was serially diluted in culture medium, 100 μL of the compound dilution was added into 96-well plates. 100 μL of an OPM-2 cell suspension (20000 cells/well) in culture medium were seeded into the corresponding well of the plate and the cells were incubated at 37° C. in an atmosphere of 5% CO2 for 24 hours. In the next day, 20 μL of CCK-8 solution was added to each well of the plate and incubated for 4 hours.
The plates were read at 450 nm on the microplate spectrophotometer (SpectraMax plus 384, Molecular devices). The readings were normalized to the vehicle cells, and the IC50 was calculated by nonlinear regression analysis using GraphPad Prism 6 software.

SMILES	IC50 [1]	IC50 [2]	IC50 [3]
Cn1c(C(=O)O)c2c3ccc(Cl)c(c31)-c1c(nn3c1CCC3)CSCc1cc(on1)CSc1cc(c3ccccc3c1)OCCC2 [compound 8, (Z)-1^6-chloro-1^1-methyl-2^5,2^6-dihydro-1^1H,2^4H-10-oxa-4,8-dithia-6(3,5)-isoxazola-1(7,3)-indola-2(3,2)-pyrrolo[1,2-b]pyrazola-9(3,1)-naphthalenacyclotridecaphane-1^2-carboxylic acid]	2940 nM	10.2 nM	> 10000 nM
Cn1nc2cc1CSc1cc(c3ccccc3c1)OCCCc1c(C(=O)O)n(C)c3c(c(Cl)ccc13)-c1c(nn3c1OCCC3)CSC2 [compound 22, (Z)-1^6-chloro-1^1,61-dimethyl-2^6,2^7-dihydro-1^1H,2^5H,6^1H-10-oxa-4,8-dithia-2(3,2)-pyrazolo[5,1-b][1,3]oxazina-1(7,3)-indola-6(3,5)-pyrazola-9(3,1)-naphthalenacyclotridecaphane-1^2-carboxylic acid]	225 nM	15.9 nM	1150 nM
Cn1nc2nc1CSc1cc(c3ccccc3c1)OCCCc1c(C(=O)O)n(C)c3c(c(Cl)ccc13)-c1c(nn3c1CCC3)CSC2 [compound 13, (Z)-1^6-chloro-1^1,6^1-dimethyl-2^5,2^6-dihydro-1^1H,2^4H,6^1H-10-oxa-4,8-dithia-1(7,3)-indola-2(3,2)-pyrrolo[1,2-b]pyrazola-6(3,5)-triazola-9(3,1)-naphthalenacyclotridecaphane-1^2-carboxylic acid]	4300 nM	14.6 nM	> 10000 nM
Cc1c(Cl)cc2cc1SCc1cc(nn1C)CSCc1nn3c(c1-c1c(Cl)ccc4c(c(C(=O)O)n(C)c14)CCCO2)CCCC3 [Cpd. No. 37, (Z)-1^6,9^5-dichloro-1^1,6^1,9^6-trimethyl-2^4,2^5,2^6 2^7-tetrahydro-1^1H,6^1-10-oxa-4,8-dithia-2(3,2)-pyrazolo[1,5-a]pyridina-1(7,3)-indola-6(3,5)-pyrazola-9(1,3)-benzenacyclotridecaphane-1^2-carboxylic acid]	535 nM	38 nM	1050 nM
Cn1c(C(=O)O)c2c3ccc(Cl)c(c31)-c1c(nn3c1CCC3)CSCc1csc(n1)CSc1cc(c3ccccc3c1)OCCC2 [compound 3, (Z)-1^6-chloro-1^1-methyl-2^5,2^6-dihydro-1^1H,2^4H-10-oxa-4,8-dithia-6(4,2)-thiazola-1(7,3)-indola-2(3,2)-pyrrolo[l,2-b]pyrazola-9(3,1)-naphthalenacyclotridecaphane-1^2-carboxylic acid]	5110 nM	8.7 nM	6580 nM
Cn1nc2cc1CSc1cc(c3ccc(Cl)cc3c1)OCCCc1c(C(=O)O)n(C)c3c(c(Cl)ccc13)-c1c(nn3c1COCC3)CSC2 [compound 19, (Z)-1^6,9^6-dichloro-1^1,6^1-dimethyl-2^6,2^7-dihydro-1^1H,2^4H,6^1H-10-oxa-4,8-dithia-2(3,2)-pyrazolo[5,1-c][1,4]oxazina-1(7,3)-indola-6(3,5)-pyrazola-9(3,1)-naphthalenacyclotridecaphane-1^2-carboxylic acid]	250 nM	16 nM	384 nM
Cn1nc2cc1CSc1cc(c3ccccc3c1)OCCCc1c(C(=O)O)n(C)c3c(c(Cl)ccc13)-c1c(nn3c1OCC3)CSC2 [compound 6, (Z)-1^6-chloro-1^1,6^1-dimethyl-2^2,2^3-dihydro-1^1H,6^1H-10-oxa-4,8-dithia-2(7,6)-pyrazolo[5,1-b]oxazola-1(7,3)-indola-6(3,5)-pyrazola-9(3,1)-naphthalenacyclotridecaphane-1^2-carboxylic acid]	234 nM	15 nM	1350 nM
Cc1cc2ccc1CSCc1nn3c(c1-c1c(Cl)ccc4c(c(C(=O)O)n(C)c14)CCCOc1cc(cc4cc(F)ccc14)SC2)CCC3 [compound 29, 1^6-chloro-9^6-fluoro-1^1,6^2-dimethyl-2^5,2^6-dihydro-1^1H,2^4H-10-oxa-4,8-dithia-1(7,3)-indola-2(3,2)-pyrrolo[1,2-b]pyrazola-9(3,1)-naphthalena-6(1,4)-benzenacyclotridecaphane-1^2-carboxylic acid]	158 nM	14.9 nM	348 nM

More lines, main results first:

IC50 [1]	IC50 [2]	SMILES	IC50 [3]
61 nM	12 nM	Cc1c2c(nn1C)CN(S(=O)(=O)C(F)(F)F)Cc1cc(n(C)n1)CSc1cc(c3ccc(F)cc3c1)OCCCc1c(C(=O)O)n(C)c3c-2c(Cl)ccc13 [compound 46, (Z)-1^6-chloro-9^6-fluoro-1^1,2^1,2^5,6^1-tetramethyl-4-((trifluoromethyl)sulfonyl)-1^1H,2^1H,6^1H-10-oxa-8-thia-4-aza-1(7,3)-indola-2(4,3),6(3,5)-dipyrazola-9(3,1)-naphthalenacyclotridecaphane-1^2-carboxylic acid]	49 nM
190 nM	12 nM	Cn1nc2cc1CSc1cc(c3ccc(F)cc3c1)OCCCc1c(C(=O)O)n(C)c3c(c(Cl)ccc13)-c1c(nn3c1COCC3)CN(S(=O)(=O)C1CC1)C2 [compound 43, (Z)-1^6-chloro-4-(cyclopropylsulfonyl)-9^6-fluoro-1^1,6^1-dimethyl-2^6,2^7-dihydro-1^1H,2^4H,6^1H-10-oxa-8-thia-4-aza-2(3,2)-pyrazolo[5,1-c][1,4]oxazina-1(7,3)-indola-6(3,5)-pyrazola-9(3,1)-naphthalenacyclotridecaphane-1^2-carboxylic acid]	451 nM
63 nM	14 nM	Cn1c(C(=O)O)c2c3ccc(Cl)c(c31)-c1c(nn3c1CCC3)CSCc1ccc(cn1)CSc1cc(c3ccc(F)cc3c1)OCCC2 [compound 31, 1^6-chloro-9^6-fluoro-1^1-methyl-2^5,2^6-dihydro-1^1H,2^4H-10-oxa-4,8-dithia-1(7,3)-indola-2(3,2)-pyrrolo[1,2-b]pyrazola-6(2,5)-pyridina-9(3,1)-naphthalenacyclotridecaphane-1^2-carboxylic acid]	125 nM
110 nM	19 nM	Cn1nc2cc1CSc1cc(c3ccc(F)cc3c1)OCCCc1c(C(=O)O)n(C)c3c(c(Cl)ccc13)-c1c(C(F)F)nn(C)c1CN(S(C)(=O)=O)C2 [compound 51, (Z)-1^6-chloro-2^3-(difluoromethyl)-9^6-fluoro-1^1,2^1,6^1-trimethyl-4-(methylsulfonyl)-1^1H,2^1H,6^1H-10-oxa-8-thia-4-aza-1(7,3)-indola-2(4,5),6(3,5)-dipyrazola-9(3,1)-naphthalenacyclotridecaphane-1^2-carboxylic acid]	152 nM
261 nM	17 nM	Cn1nc2cc1CSc1cc(c3ccc(F)cc3c1)OCCCc1c(C(=O)O)n(C)c3c(c(Cl)ccc13)-c1c(nn3c1COCC3)CN(S(C)(=O)=O)C2 [compound 42, (Z)-1^6-chloro-9^6-fluoro-1^1,6^1-dimethyl-4-(methylsulfonyl)-2^6,2^7-dihydro-1^1H,2^4H,6^1H-10-oxa-8-thia-4-aza-2(3,2)-pyrazolo[5,1-c][1,4]oxazina-1(7,3)-indola-6(3,5)-pyrazola-9(3,1)-naphthalenacyclotridecaphane-1^2-carboxylic acid]	357 nM
215 nM	16 nM	CC(=O)N1Cc2cc(n(C)n2)CSc2cc(c3ccccc3c2)OCCCc2c(C(=O)O)n(C)c3c(c(Cl)ccc23)-c2c(nn(C)c2C)C1 [compound 35, (Z)-4-acetyl-1^6-chloro-1^1,2^1,2^5,6^1-tetramethyl-1^1H,2^1H,6^1H-10-oxa-8-thia-4-aza-1(7,3)-indola-2(4,3),6(3,5)-dipyrazola-9(3,1)-naphthalenacyclotridecaphane-1^2-carboxylic acid]	763 nM
